The species named for experiment [1] is Rattus norvegicus. Nature of the experiment: Inhibition of Wistar rat intestinal cellobiase at 1000 uM by glucose B-test.
Experiment [2] can be described thus: Inhibition of green coffee bean alpha-galactosidase by spectrophotometry. Details: species or system Coffea arabica.
The species entered for experiment [3] is Rattus norvegicus. Nature of the experiment: Inhibition of rat liver lysosomal alpha-galactosidase at 1000 uM by spectrophotometry.
A short description of experiment [4]: Inhibition of rice alpha-glucosidase by glucose B-test. Also noted: species or system Oryza sativa.
Experiment [5] concerns the target Sucrase-isomaltase, intestinal (Rattus norvegicus, UniProt P23739). The experiment can be described thus: Inhibition of Wistar rat intestinal isomaltase by glucose B-test.
Experiment [6] is described as follows: Inhibition of rat liver beta-galactosidase by spectrophotometry.
In another experiment the test system is Prunus dulcis. Nature of the experiment: Inhibition of almond beta-glucosidase at 1000 uM by spectrophotometry.
For experiment [7], the species on record is Rattus norvegicus. Nature of the experiment: Inhibition of rat liver lysosomal beta-glucosidase at 1000 uM by spectrophotometry.
The species entered for experiment [8] is Rattus norvegicus. Nature of the experiment: Inhibition of rat liver beta-galactosidase at 1000 uM by spectrophotometry.
The species entered for the next experiment is Bos taurus. The experiment can be described thus: Inhibition of bovine liver beta-galactosidase at 1000 uM by spectrophotometry.
The target of experiment [9] is Sucrase-isomaltase, intestinal (Rattus norvegicus) (UniProt P23739). The experiment can be described thus: Inhibition of Wistar rat intestinal isomaltase at 1000 uM by glucose B-test.
Another experiment deals with Oryza sativa. Nature of the experiment: Inhibition of rice alpha-glucosidase at 1000 uM by glucose B-test.
The test system of the next experiment is Coffea arabica. Nature of the experiment: Inhibition of green coffee bean alpha-galactosidase at 1000 uM by spectrophotometry.
Experiment [10] in a line: Inhibition of rat liver lysosomal beta-glucosidase by spectrophotometry.
Experiment [11] is described as follows: Inhibition of bovine liver beta-galactosidase by spectrophotometry. Also noted: species or system Bos taurus.
Experiment [12] is described as follows: Inhibition of Wistar rat intestinal cellobiase by glucose B-test.
Experiment [13] in a line: Inhibition of almond beta-glucosidase by spectrophotometry. Also noted: species or system Prunus dulcis.

Drawing on ChEMBL document CHEMBL1145716, “Fagomine isomers and glycosides from Xanthocercis zambesiaca” (J Nat Prod, 1997), this text covers inhibition and IC50 for 5 compounds.

A word on the inhibition: it is the relative decrease from the control value, in per cent. A lower inhibition goes with little suppression. The term IC50 denotes the midpoint of a concentration-inhibition curve. Read a low IC50 as greater potency in that assay.

Sequence of Sucrase-isomaltase, intestinal (Rattus norvegicus) (P23739 1-1013 limits assumed): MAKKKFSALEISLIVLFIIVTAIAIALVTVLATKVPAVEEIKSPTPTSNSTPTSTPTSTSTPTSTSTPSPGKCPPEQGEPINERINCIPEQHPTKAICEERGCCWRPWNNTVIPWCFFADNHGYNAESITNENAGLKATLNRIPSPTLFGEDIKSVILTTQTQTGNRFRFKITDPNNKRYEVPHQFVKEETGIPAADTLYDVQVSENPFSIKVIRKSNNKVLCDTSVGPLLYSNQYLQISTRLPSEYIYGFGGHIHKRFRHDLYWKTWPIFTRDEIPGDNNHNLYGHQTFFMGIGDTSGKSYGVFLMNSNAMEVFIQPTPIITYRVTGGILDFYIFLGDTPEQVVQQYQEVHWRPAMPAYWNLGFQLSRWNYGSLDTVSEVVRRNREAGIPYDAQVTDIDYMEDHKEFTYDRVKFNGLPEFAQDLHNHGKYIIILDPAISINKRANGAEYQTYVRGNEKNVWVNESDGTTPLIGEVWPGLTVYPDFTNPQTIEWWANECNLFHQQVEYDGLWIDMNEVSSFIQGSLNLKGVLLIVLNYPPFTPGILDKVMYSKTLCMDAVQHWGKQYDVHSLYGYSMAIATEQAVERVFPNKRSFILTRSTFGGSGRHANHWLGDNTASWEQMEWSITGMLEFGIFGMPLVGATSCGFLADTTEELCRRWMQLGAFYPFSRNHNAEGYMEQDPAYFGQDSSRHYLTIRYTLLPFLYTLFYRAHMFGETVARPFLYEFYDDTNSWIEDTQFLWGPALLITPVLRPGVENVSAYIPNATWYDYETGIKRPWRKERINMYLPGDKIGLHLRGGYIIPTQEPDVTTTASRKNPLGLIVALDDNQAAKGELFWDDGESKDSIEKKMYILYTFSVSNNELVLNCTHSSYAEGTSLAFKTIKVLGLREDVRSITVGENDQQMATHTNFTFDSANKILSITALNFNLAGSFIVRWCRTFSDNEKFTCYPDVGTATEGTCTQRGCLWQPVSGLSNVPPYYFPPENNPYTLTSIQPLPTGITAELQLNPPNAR
Sequence of Sucrase-isomaltase, intestinal (Rattus norvegicus) (P23739 1014-1841 limits assumed): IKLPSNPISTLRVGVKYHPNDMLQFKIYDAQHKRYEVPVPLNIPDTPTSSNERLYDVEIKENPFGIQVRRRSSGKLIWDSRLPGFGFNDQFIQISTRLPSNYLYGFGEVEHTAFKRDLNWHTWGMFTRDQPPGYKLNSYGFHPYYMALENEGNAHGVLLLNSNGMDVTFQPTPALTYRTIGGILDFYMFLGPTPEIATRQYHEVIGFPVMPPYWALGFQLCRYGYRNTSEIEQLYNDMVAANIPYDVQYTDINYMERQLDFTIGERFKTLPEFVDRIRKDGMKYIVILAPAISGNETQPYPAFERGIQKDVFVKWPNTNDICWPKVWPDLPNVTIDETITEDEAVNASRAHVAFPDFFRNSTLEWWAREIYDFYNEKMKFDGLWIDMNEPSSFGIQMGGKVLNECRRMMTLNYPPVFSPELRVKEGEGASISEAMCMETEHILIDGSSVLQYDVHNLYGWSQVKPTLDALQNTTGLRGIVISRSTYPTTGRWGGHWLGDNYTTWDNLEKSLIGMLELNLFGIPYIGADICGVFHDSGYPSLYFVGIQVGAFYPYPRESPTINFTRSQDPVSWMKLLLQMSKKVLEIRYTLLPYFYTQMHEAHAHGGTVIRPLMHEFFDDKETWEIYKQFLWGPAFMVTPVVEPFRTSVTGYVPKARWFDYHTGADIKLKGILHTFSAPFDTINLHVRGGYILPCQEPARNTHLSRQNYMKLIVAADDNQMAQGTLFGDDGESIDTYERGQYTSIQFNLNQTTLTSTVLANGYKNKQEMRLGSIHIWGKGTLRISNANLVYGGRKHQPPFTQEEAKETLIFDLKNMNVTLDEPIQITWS
Sequence of Sucrase-isomaltase, intestinal (P23739 1-1013 limits assumed): as the sequence (P23739 1-1013 limits assumed) above
Sequence of Sucrase-isomaltase, intestinal (P23739 1014-1841 limits assumed): as the sequence (P23739 1014-1841 limits assumed) above

For the compound `OC[C@H]1NCC[C@@H](O)[C@@H]1O` [FAGOMINE], the inhibition in the experiment listed under Rattus norvegicus [1], in the experiment filed under Rattus norvegicus [3], with Prunus dulcis and in the experiment listed under Rattus norvegicus [7] was below 50% throughout. Further, the half-inhibitory concentration (IC50) in experiment [2] was 56 µM; in [4] it was 320 µM; in experiment [5], 46 µM; in experiment [6], 15 µM.
For the compound `OC[C@H]1NCC[C@@H](O[C@@H]2O[C@H](CO)[C@@H](O)[C@H](O)[C@H]2O)[C@@H]1O`, the inhibition (in the experiment filed under Rattus norvegicus [8]; in the experiment listed under Bos taurus; in the experiment filed under Rattus norvegicus [1]; in experiment [9]; in the experiment listed under Rattus norvegicus [3]; in the experiment on Oryza sativa) was below 50% throughout. Also, the inhibition with Coffea arabica, in the experiment on Prunus dulcis and in the experiment listed under Rattus norvegicus [7] was below 50% in each case.
For the compound `OC[C@H]1NCC[C@H](O)[C@@H]1O`, the IC50 turned out to be 740 µM in experiment [10]; 3000 nM in [11]; 120 µM in experiment [4]; 6 µM in [5]; 4 µM in [6]; 100 µM in experiment [12]. The compound also came in with an IC50 in experiment [13] of 120 µM. For the same compound, the inhibition in the experiment filed under Rattus norvegicus [3] and in the experiment with Coffea arabica was below 50% in each case.
As to `OC[C@H]1NCC[C@@H](O)[C@@H]1O[C@@H]1O[C@H](CO)[C@@H](O)[C@H](O)[C@H]1O`, the inhibition (in the experiment listed under Rattus norvegicus [8]; in the experiment listed under Bos taurus; in the experiment filed under Rattus norvegicus [1]; in [9]; in the experiment filed under Rattus norvegicus [3]; with Oryza sativa) was below 50% throughout. The inhibition in the experiment with Coffea arabica, in the experiment on Prunus dulcis and in the experiment listed under Rattus norvegicus [7] was below 50% in each case.
In the case of `OC[C@H]1NCC[C@H](O)[C@H]1O`, the inhibition (in the experiment filed under Rattus norvegicus [8]; in the experiment filed under Bos taurus; in the experiment filed under Rattus norvegicus [1]; in [9]; in the experiment filed under Rattus norvegicus [3]; in the experiment with Oryza sativa) was below 50% each time. For the same compound, the inhibition in the experiment with Coffea arabica, in the experiment on Prunus dulcis and in the experiment filed under Rattus norvegicus [7] was below 50% each time.
